For 20 compounds, IC50 results are on record in patent US20240150321A1, “PYRAZOLYLSULFONAMIDE COMPOUNDS AND THEIR USE IN THERAPY” (HOTSPOT THERAPEUTICS, INC., priority 2022, published 2024).

Read-outs that look alike come from different tables or passages of the source.

For one assay, the target named is Avi-tagged FL MALT-1 (Homo sapiens (Human), UniProt Q9UDY8). The assay can be described thus: MALT-1 Fluorogenic Peptide Cleavage Assay (MALT1 inhibition assay). The assay is classed as biochemical. The note with it: Ac-LRSR-AMC peptide substrate, 30 min pre-incubation, 90 min reaction at room temperature. The protocol:
Inhibition of MALT1 activity by the presence of small molecules was evaluated using MALT-1 Fluorogenic Peptide Cleavage Assay. The assay utilizes a quenched AMC-labelled peptide that contains the MALT-1 recognition sequence and cleavage site (LRSR). MALT-1 mediated cleavage of the peptide relieves the quenching and leads to an increase in fluorescence at excitation (342 nm) and emission (441 nm).
The following reagents were obtained commercially and used to prepare standard reagent formulations as further described below: N-2-hydroxyethylpiperazine-N-2-ethane sulfonic acid (HEPES) (1 M, pH 7.5, stored at 4° C.), sodium citrate (stored at RT), tris(2-carboxyethyl) phosphine hydrochloride (T-CEP) (500 mM, stored at −20° C.), ethylenediaminetetraacetic acid (EDTA) (500 mM, stored at RT), dimethylsulfoxide (DMSO, stored at RT), 3-[(3-cholamido-propyl)dimethylammonio]-1-propane sulphate (CHAPS) (stored at RT), dimethylsulfoxide (DMSO), DMSO (Fisher Scientific, stored at RT), Avi-tagged FL MALT-1 (Pharmaron, stored at −70° C.), Ac-LRSR-AMC Peptide (SM Biochemicals, stored at −20° C.)., and ultrapure water (MILLLI-Q©).
The standard reagent formulations used in this assay were prepared and stored as follows. A 1.1 M solution of sodium citrate (161.3 g, 500 mL) was prepared and stored at room temperature. A 10% (w/v) CHAPS solution (2.0 g, 20 mL) was prepared and stored at 4° C. A 500 mM HEPES solution having pH of 6.89 was prepared from 200 mL of a 1 M HEPES solution having a pH of 7.5 using concentrated hydrochloric acid and brought to a final volume of 400 mL with MILLI-Q© H2O. The substrate, 10 mM Ac-LRSR-AMC Peptide, was prepared (10 mg, 1.370 mL DMSO) and stored at −20° C.
Compounds were plated to provide a 2% DMSO final concentration using a ProxiPlate-384 Plus F Black 384-shallow well microplate. The assay-ready plates were equilibrated to room temperature. A reaction buffer (30 mL total volume) was prepared by combining HEPES (pH 6.89, 25 mM, 1.5 mL), sodium citrate (660 mM, 18.0 mL), T-CEP (1 mM, 0.06 mL), EDTA ([…], 0.06 mL), CHAPS (0.05%, 0.15 mL), DMSO (2%, 0.6 mL), and MILLI-Q© H2O (10.23 mL; 9.63 mL when backfilled to 2% DMSO) followed by thorough mixing. DMSO was added only when compound plates had not been DMSO-backfilled to 2%.
MALT-1 was thawed and kept on ice. Peptide substrate was thawed on the bench under ambient conditions. A MALT-1 enzyme working stock was prepared from Avi-tagged FL MALT-1 (40 nM in a prepared reagent volume of 16.5 μL) and the reaction buffer (13.0 mL). MALT1 working stock (5 μL) was added to each well of the microplate. MALT-1 was pre-incubated with compounds for 30 minutes at room temperature.
Two substrate working stocks (Km and 10×Km) were prepared. The 1×Km substrate was prepared from Ac-LRSR-AMC Peptide (50 μM in a prepared reagent volume of 35.0 μL) and the reaction buffer (6.965 mL). The 10×Km substrate was prepared from Ac-LRSR-AMC Peptide (280 μM in a prepared reagent volume of 196.0 μL) and the reaction buffer (6.804 mL). The reaction was initiated by the addition of substrate working stock (5 μL, 50 μM) to Km plates and the addition of substrate working stock (5 μL 280 μM) to 10×Km plates. The plates were covered and incubated on the bench at room temperature for 90 minutes.
Fluorescence intensity was determined using a CLARIOstar microplate reader (BMG LABTECH) using the optimised AMC mode. Before taking readings, a 70% gain was applied on the neutral control well. Compound data were normalised to % Inhibition and used to plot sigmoidal concentration response curves to yield various parameters including IC50.

In assay [1] the test system is NF-kB reporter in Jurkat cells. The assay can be described thus: NF-kB reporter assay in Jurkat cells stimulated with aCD3/aCD28/PMA. The class given is cell-based. The following applies: Jurkat cells, 1 hr compound pre-incubation, aCD3/aCD28/PMA stimulation 4 hr, One-Glo readout, read-out: NF-kB Reporter Assay IC50. The protocol: Jurkat cells were maintained in complete RPMI 1640 media supplemented with 10% FBS. Prior to the assay, 120 nL of the serial diluted compound was added in each well of 384-well flat bottom white plate (Corning #3570) by using liquid handler Echo550. Jurkat cells were harvested by centrifugation at 120 g for 10 min and resuspended in fresh RPMI 1640 media without serum. […] (25,000 cells) were seeded in each well of 384-well plate containing compound. After 1 hr incubation at 37° C. in a 5% CO2 incubator, […] of diluted aCD3/aCD28/PMA (final concentration at […] and […], respectively) in RPMI 1640 without serum were added to each well. After incubation at 37° C. in 5% CO2 for 4 hr, […] of One-Glo reagent (Promega #E6120) was added into each well. The plate was left at room temperature for 5 min and the signal was measured on EnVision (PerkinElmer).
Compounds in which an IC50 was not measured are designated as “N/A”.
(In a reporter assay the amount or activity of a reporter protein is the signal.)

Sequence of Avi-tagged FL MALT-1 (Q9UDY8 whole entry): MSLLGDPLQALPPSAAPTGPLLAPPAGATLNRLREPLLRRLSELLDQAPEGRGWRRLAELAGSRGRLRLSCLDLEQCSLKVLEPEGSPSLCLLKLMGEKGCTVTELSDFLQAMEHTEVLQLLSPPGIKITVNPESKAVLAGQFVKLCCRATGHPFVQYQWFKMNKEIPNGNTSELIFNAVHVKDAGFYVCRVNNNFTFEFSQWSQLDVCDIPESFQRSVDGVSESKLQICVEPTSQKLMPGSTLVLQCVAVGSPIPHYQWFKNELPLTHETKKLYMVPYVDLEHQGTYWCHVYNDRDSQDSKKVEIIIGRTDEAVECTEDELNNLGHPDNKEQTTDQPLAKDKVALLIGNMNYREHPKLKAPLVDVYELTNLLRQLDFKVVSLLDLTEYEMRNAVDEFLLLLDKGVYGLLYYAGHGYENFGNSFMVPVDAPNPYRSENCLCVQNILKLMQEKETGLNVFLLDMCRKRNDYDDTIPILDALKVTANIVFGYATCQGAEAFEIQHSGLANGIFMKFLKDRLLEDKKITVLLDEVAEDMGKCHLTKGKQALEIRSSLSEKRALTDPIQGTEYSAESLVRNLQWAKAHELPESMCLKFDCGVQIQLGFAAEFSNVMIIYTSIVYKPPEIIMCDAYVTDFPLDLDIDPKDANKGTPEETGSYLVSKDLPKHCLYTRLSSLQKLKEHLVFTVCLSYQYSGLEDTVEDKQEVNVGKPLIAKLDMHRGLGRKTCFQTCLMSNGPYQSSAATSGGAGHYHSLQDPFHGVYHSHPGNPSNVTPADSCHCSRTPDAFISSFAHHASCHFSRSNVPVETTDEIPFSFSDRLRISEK

Usually IC50 stands for the concentration at which inhibition is half-maximal. `Cn1ncc2cccc(NS(=O)(=O)c3cnn(-c4cc(N5CCCCC5)ccn4)c3)c21` [Compound I-250, N-(1-methyl-1H-indazol-7-yl)-1-(4-(piperidin-1-yl)pyridin-2-yl)-1H-pyrazole-4-sulfonamide]: the IC50 at Avi-tagged FL MALT-1 is over 2500 nM; in assay [1] (Homo sapiens), under 400 nM.
For `[2H]C([2H])([2H])n1ncc2cnc(OC)c(N(C)S(=O)(=O)c3cnn(-c4cc(C(F)(F)F)ccn4)c3)c21` [Compound I-354, N-(6-methoxy-1-(methyl-d3)-1H-pyrazolo[4,3-c]pyridin-7-yl)-N-methyl-1-(4-(trifluoromethyl)pyridin-2-yl)-1H-pyrazole-4-sulfonamide], in that order: at most 400 nM and under 400 nM.
For `CC[C@@H](O)c1ccnc(-n2cc(S(=O)(=O)Nc3cccc4cnn(C)c34)cn2)c1` [Compound I-278, (R)-1-(4-(1-hydroxypropyl)pyridin-2-yl)-N-(1-methyl-1H-indazol-7-yl)-1H-pyrazole-4-sulfonamide], in that order: over 2500 nM and under 400 nM.
`Cn1ncc2cccc(NS(=O)(=O)c3cnn(-c4cc(C5(F)CC(F)C5)ccn4)c3)c21` (stereo not shown) [Compound I-376, 1-(4-(1,3-difluorocyclobutyl)pyridin-2-yl)-N-(1-methyl-1H-indazol-7-yl)-1H-pyrazole-4-sulfonamide]: the results for the IC50 (at Avi-tagged FL MALT-1; in assay [1]) were over 2500 nM and under 400 nM, respectively.
As to `Cn1ncc2cccc(NS(=O)(=O)c3cnn(-c4cc(NC(C)(C)CO)ccn4)c3)c21` [Compound I-324, 1-(4-((1-Hydroxy-2-Methylpropan-2-yl)Amino)Pyridin-2-yl)-N-(1-Methyl-1H-Indazol-7-yl)-1H-Pyrazole-4-Sulfonamide], the IC50 was over 2500 nM at Avi-tagged FL MALT-1 and under 400 nM in assay [1] (Homo sapiens).
For `Cn1ncc2cccc(NS(=O)(=O)c3cnn(-c4cc(N5CC6CC(C6)C5)ccn4)c3)c21` [Compound I-389, 1-(4-(3-Azabicyclo[3.1.1]Heptan-3-yl)Pyridin-2-yl)-N-(1-Methyl-1H-Indazol-7-yl)-1H-Pyrazole-4-Sulfonamide], in that order: over 2500 nM and under 400 nM.
For `Cc1n[nH]c2cccc(NS(=O)(=O)c3cnn(-c4cc(C5(F)COC5)ccn4)c3)c12` [Compound I-240, 1-[4-(3-fluorooxetan-3-yl)pyridin-2-yl]-N-(3-methyl-1H-indazol-4-yl)pyrazole-4-sulfonamide], in that order: over 2500 nM and under 400 nM.
For `Cn1ncc2cccc(NS(=O)(=O)c3cnn(-c4cc(N5CC(F)C5)ccn4)c3)c21` [Compound I-438, 1-[4-(3-fluoroazetidin-1-yl)pyridin-2-yl]-N-(1-methylindazol-7-yl)pyrazole-4-sulfonamide], in that order: over 2500 nM and under 400 nM.
For `COCC(C)(C)c1ccnc(-n2cc(S(=O)(=O)Nc3c(OC)ccc4cnn(C)c34)cn2)c1` [Compound I-482, N-(6-methoxy-1-methyl-1H-indazol-7-yl)-1-(4-(1-methoxy-2-methylpropan-2-yl)pyridin-2-yl)-1H-pyrazole-4-sulfonamide], the IC50 against Avi-tagged FL MALT-1 was 400 to 1000 nM; in assay [1] (Homo sapiens), under 400 nM.
In the case of `CC[C@@](C)(O)c1ccnc(-n2cc(S(=O)(=O)Nc3cccc4cnn(C)c34)cn2)c1` [Compound I-295], the IC50 was over 2500 nM at Avi-tagged FL MALT-1 and under 400 nM in assay [1] (Homo sapiens).
For `COc1ncc2cnn(C)c2c1NS(=O)(=O)c1cnn(-c2cc(N3CC4(CC4)C3)ccn2)c1` [Compound I-386, 1-(4-(5-azaspiro[2.3]hexan-5-yl)pyridin-2-yl)-N-(6-methoxy-1-methyl-1H-pyrazolo[4,3-c]pyridin-7-yl)-1H-pyrazole-4-sulfonamide], in that order: over 2500 nM and under 400 nM.
For `COc1ncc2cnn(C)c2c1NS(=O)(=O)c1cnn(-c2cc(C(F)F)ccn2)c1` [Compound I-126, 1-[4-(difluoromethyl)pyridin-2-yl]-N-{6-methoxy-1-methylpyrazolo[4,3-c]pyridin-7-yl}pyrazole-4-sulfonamide], in that order: at most 400 nM and under 400 nM.
For `Cc1n[nH]c2cccc(NS(=O)(=O)c3cnn(-c4ccnc(C(F)(F)F)c4)c3)c12` [Compound I-51, N-(3-Methyl-1H-Indazol-4-yl)-1-(2-(Trifluoromethyl)Pyridin-4-yl)-1H-Pyrazole-4-Sulfonamide], the IC50 (against Avi-tagged FL MALT-1; in assay [1] (Homo sapiens)) was over 2500 nM throughout.
With `COC[C@@](C)(F)c1ccnc(-n2cc(S(=O)(=O)Nc3cccc4cnn(C)c34)cn2)c1` [Compound I-331, (S)-1-(4-(2-fluoro-1-methoxypropan-2-yl)pyridin-2-yl)-N-(1-methyl-1H-indazol-7-yl)-1H-pyrazole-4-sulfonamide], the half-maximal inhibitory concentration (IC50) is over 2500 nM against Avi-tagged FL MALT-1 and under 400 nM in assay [1] (Homo sapiens).
Turning to `COc1ncc2cnn(C)c2c1NS(=O)(=O)c1cnn(-c2cc(N3CC4CC3C4)ccn2)c1` [Compound I-436], the IC50 against Avi-tagged FL MALT-1 was 1000 to 2500 nM; in assay [1] (Homo sapiens), under 400 nM.
Consider `Cn1ncc2cccc(NS(=O)(=O)c3cnn(-c4ccnc(C(F)(F)F)c4)c3)c21` [Compound I-16, N-(1-Methyl-1H-Indazol-7-yl)-1-(2-(Trifluoromethyl)Pyridin-4-yl)-1H-Pyrazole-4-Sulfonamidemide], for which the concentration for half-maximal inhibition (IC50) (against Avi-tagged FL MALT-1; in assay [1] (Homo sapiens)) was over 2500 nM each time.
Consider `C[C@H]1CN(C)C(=O)N1c1ccnc(-n2cc(S(=O)(=O)Nc3cccc4cnn(C)c34)cn2)c1` [Compound I-349], for which the IC50 is over 2500 nM at Avi-tagged FL MALT-1 and under 400 nM in assay [1] (Homo sapiens).
Compound `CCc1ccc2cnn(C)c2c1NS(=O)(=O)c1cnn(-c2ccnc(C(F)(F)F)n2)c1` [Compound I-11, N-(6-Ethyl-1-Methyl-1H-Indazol-7-yl)-1-(2-(Trifluoromethyl) Pyrimidin-4-yl)-1H-Pyrazole-4-Sulfonamide] returned an IC50 at Avi-tagged FL MALT-1 of 1000 to 2500 nM.
Compound `Cn1ncc2cccc(NS(=O)(=O)c3cnn(-c4cccc(C(F)(F)F)n4)c3)c21` [Compound I-13, N-(1-Methyl-1H-Indazol-7-yl)-1-(6-(Trifluoromethyl)Pyridin-2-yl)-1H-Pyrazole-4-Sulfonamide] came in with an IC50 against Avi-tagged FL MALT-1 of over 2500 nM.
`CCc1ccc2cnn(C)c2c1NS(=O)(=O)c1cnn(-c2cccc(C(F)(F)F)n2)c1` [Compound I-12, N-(6-Ethyl-1-Methyl-1H-Indazol-7-yl)-1-(2-(Trifluoromethyl) Pyridin-2-yl)-1H-Pyrazole-4-Sulfonamide] yielded an IC50 against Avi-tagged FL MALT-1 of over 2500 nM.
